In US7723364B2, “N-[2-(2-pyridinyl) ethyl]benzamide compounds and their use as fungicides” (Bayer Cropscience SA, priority 2003, dated 2010):

Columns and labels:
[1] = tested on: Alternaria brassicae; experiment: In vivo test on Alternaria brassicae (leaf spot of crucifers) on radish plants; details: for pest or weed control at 330 ppm: Alternaria brassicae, dose of 330 ppm, radish plants sprayed 24 hours before contamination, grading 6 to 7 days after contamination vs control plants, read-out: good (at least 50%) or total protection; for effectiveness on Alternaria brassicae: comparison compounds of WO 01/11965, 330 ppm
Procedure: In Vivo Test on Alternaria brassicae (Leaf Spot of Crucifers)
(§1) The active ingredient tested is prepared by potter homogenisation in a concentrated suspension type formulation at 100 g/l. This suspension is then diluted with water to obtain the desired active material concentration.
Radish plants (Pernot variety) in starter cups, sown on a 50/50 peat soil-pozzolana substrate and grown at 18-20° C., are treated at the cotyledon stage by spraying with the aqueous suspension described above.
(§2) Plants, used as controls, are treated with an aqueous solution not containing the active material.
After 24 hours, the plants are contaminated by spraying them with an aqueous suspension of Alternaria brassicae spores (40,000 spores per cm^3). The spores are collected from a 12 to 13 days-old culture.
The contaminated radish plants are incubated for 6-7 days at about 18° C., under a humid atmosphere.
Grading is carried out 6 to 7 days after the contamination, in comparison with the control plants.

[2] = tested on: Botrytis cinerea; experiment: In vivo test on Botrytis cinerea (cucumber grey mould); details: for pest or weed control at 330 ppm: Botrytis cinerea, dose of 330 ppm, cucumber plants sprayed 24 hours before contamination, grading 5/7 days after contamination vs control plants, read-out: good (at least 50%) or total protection; for effectiveness on Botrytis cinerea: comparison compounds of WO 01/11965, 330 ppm
Procedure: In Vivo Test on Botrytis cinerea (Cucumber Grey Mould)
as §1
(§3) Cucumber plants (Marketer variety) in starter cups, sown on a 50/50 peat soil-pozzolana substrate and grown at 18-20° C., are treated at the cotyledon Z11 stage by spraying with the aqueous suspension described above. Plants, used as controls, are treated with an aqueous solution not containing the active material.
After 24 hours, the plants are contaminated by depositing drops of an aqueous suspension of Botrytis cinerea spores (150,000 spores per ml) on upper surface of the leaves. The spores are collected from a 15-day-old culture and are suspended in a nutrient solution composed of:
The contaminated cucumber plants are settled for 5/7 days in a climatic room at 15-11° C. (day/night) and at 80% relative humidity.
Grading is carried out 5/7 days after the contamination, in comparison with the control plants. Under these conditions, good (at least 50%) or total protection is observed at a dose of 330 ppm with the following compounds: 1, 2, 3, 4, 5, 6, 9, 10, 13, 18, 21, 22, 23, 25, 26, 27, 28, 29, 32, 34, 35, 38, 40, 43, 44, 45, 46, 47, 50, 51, 52, 53, 57 and 62.

[3] = tested on: Pyrenophora teres; experiment: In vivo test on Pyrenophora teres (barley net blotch); details: 288 h, dose of 330 ppm, barley plants sprayed 24 hours before contamination, grading 12 days after contamination vs control plants, read-out: good (at least 50%) or total protection
Procedure: In Vivo Test on Pyrenophora teres (Barley Net Blotch)
as §1
as §3, with “Barley” for “Cucumber”, “(Express” for “(Marketer”, “12°” for “18-20°”, “1-leaf” for “cotyledon Z11”, “stage (10 cm tall)” for “stage”
After 24 hours, the plants are contaminated by spraying them with an aqueous suspension of Pyrenophora teres spores (12,000 spores per ml). The spores are collected from a 12-day-old culture. The contaminated barley plants are incubated for 24 hours at about 20° C. and at 100% relative humidity, and then for 12 days at 80% relative humidity.

[4] = tested on: Erysiphe graminis f. sp. tritici; experiment: In vivo test on Erysiphe graminis f. sp. tritici (powdery mildew of wheat); details: Blumeria graminis; dose of 330 ppm; wheat plants sprayed 24 hours before contamination; grading 7 to 14 days after contamination vs control plants; read-out: good (at least 50%) or total protection
Procedure: In Vivo Test on Erysiphe graminis f. sp. tritici (Powdery Mildew of Wheat)
as §1
Wheat plants (Audace variety) in starter cups, sown on 50/50 peat soil-pozzolana substrate and grown at 12° C., are treated at the 1-leaf stage (10 cm tall) by spraying with the aqueous suspension described above.
as §2
After 24 hours, the plants are contaminated by dusting them with Erysiphe graminis f. sp. tritici spores, the dusting being carried out using diseased plants.
Grading is carried out 7 to 14 days after the contamination, in comparison with the control plants.
Under these conditions, good (at least 50%) or total protection is observed at a dose of 330 ppm with the following compounds: 1, 3, 4, 5, 6, 8, 9, 10, 11, 12, 13, 18, 38, 50, 43 and 45.

Row | SMILES | pest or weed control at 330 ppm [1] | pest or weed control at 330 ppm [2] | pest or weed control at 330 ppm [3] | also measured
1 | O=C(NCCc1ncc(Cl)cc1Cl)c1ccccc1Cl [Compound 2] | ≥ 50% | ≥ 50% | ≥ 50% | 
2 | Cc1ccccc1C(=O)NCCc1ncc(Cl)cc1Cl [Compound 3] | ≥ 50% | ≥ 50% | ≥ 50% | pest or weed control at 330 ppm [4]: ≥ 50%
3 | O=C(NCCc1ncccc1Cl)c1ccccc1C(F)(F)F [Compound 6, N-[2-(3-chloro-2-pyridinyl)ethyl]-2-(trifluoromethyl)benzamide] | ≥ 50% | ≥ 50% |  | pest or weed control at 330 ppm [4]: ≥ 50%
4 | CC(CNC(=O)c1cc(F)ccc1Cl)c1ccc(Cl)cn1 (centres unmarked) [Compound 7] | ≥ 50% |  |  | 
5 | O=C(NCCc1nc(F)c(F)cc1F)c1ccccc1C(F)(F)F [Compound 12] | ≥ 50% |  | ≥ 50% | pest or weed control at 330 ppm [4]: ≥ 50%
6 | Cc1ccc(CCNC(=O)c2ccccc2I)nc1 [Compound 14, N-[2-(5-methyl-2-pyridinyl)ethyl]-2-(iodo)benzamide] | ≥ 50% |  |  | 
7 | O=C(NCCc1ccc(Cl)cn1)c1ccccc1C(F)(F)F [Compound 20] | ≥ 50% |  |  | 
8 | O=C(NCCc1ncc(Cl)cc1F)c1ccccc1I [Compound 21] | ≥ 50% | ≥ 50% | ≥ 50% | 
9 | O=C(NCCc1nc(Cl)c(Cl)cc1Cl)c1ccccc1I [Compound 22] |  | ≥ 50% |  | 
10 | O=C(NCCc1nc(Cl)c(Cl)cc1Cl)c1ccccc1C(F)(F)F [Compound 23] |  | ≥ 50% |  | 
11 | O=C(NCCc1ccc(Cl)cn1)c1ccccc1I [Compound 24] | ≥ 50% |  |  | 
12 | O=C(NCCc1ncc(Cl)cc1F)c1ccccc1C(F)F [Compound 29] |  | ≥ 50% |  | 
13 | O=C(NCCc1nc(F)c(Cl)cc1Cl)c1ccccc1I [Compound 34] | ≥ 50% | ≥ 50% | ≥ 50% | 
14 | O=C(NCCc1nc(Cl)ccc1Cl)c1ccccc1C(F)(F)F [Compound 35] | ≥ 50% | ≥ 50% | ≥ 50% | 
15 | O=C(NCCc1nc(Cl)ccc1Cl)c1ccccc1I [Compound 36] | ≥ 50% |  | ≥ 50% | 
16 | O=C(NCCc1nc(Cl)ccc1Cl)c1ccccc1Br [Compound 37] | ≥ 50% |  | ≥ 50% | 
17 | O=C(NCCc1ccc(Cl)cn1)c1ccccc1Br [Compound 39] |  |  | ≥ 50% | 
18 | O=C(NCCc1ncc(Cl)cc1Br)c1ccccc1I [Compound 40] | ≥ 50% | ≥ 50% | ≥ 50% | 
19 | O=C(NCCc1nc(Cl)ccc1Cl)c1ccccc1C(F)F [Compound 41] | ≥ 50% |  | ≥ 50% | 
20 | Cc1c(F)c(F)nc(CCNC(=O)c2ccccc2C(F)(F)F)c1F [Compound 42] |  |  | ≥ 50% | 

Row | SMILES | pest or weed control at 330 ppm [1] | pest or weed control at 330 ppm [2] | pest or weed control at 330 ppm [3] | also measured
21 | O=C(NCCc1nc(F)c(F)cc1F)c1ccccc1Br [Compound 47] | ≥ 50% | ≥ 50% | ≥ 50% | 
22 | O=C(NCCc1nc(F)c(F)cc1F)c1ccccc1Cl [Compound 48] |  |  | ≥ 50% | 
23 | Cc1ccccc1C(=O)NCCc1nc(F)c(F)c(C)c1F [Compound 49] | ≥ 50% |  | ≥ 50% | 
24 | O=C(NCCc1ncc(Br)cc1Cl)c1ccccc1Br [Compound 52] | ≥ 50% | ≥ 50% | ≥ 50% | 
25 | Cc1ccc(Cl)c(CCNC(=O)c2ccccc2C(F)(F)F)n1 [Compound 56] | ≥ 50% |  | ≥ 50% | 
26 | O=C(NCCc1nc(F)c(Cl)cc1Cl)c1ccccc1C(F)(F)F [Compound 57] | ≥ 50% | ≥ 50% | ≥ 50% | 
27 | O=C(NCCc1nc(F)c(Cl)cc1Cl)c1ccccc1Br [Compound 58] | ≥ 50% |  | ≥ 50% | 
28 | O=C(NCCc1nc(F)c(Cl)cc1Cl)c1ccccc1Cl [Compound 59] | ≥ 50% |  | ≥ 50% | 
29 | CC(CNC(=O)c1ccccc1C(F)(F)F)c1ncc(Cl)cc1Cl (centres unmarked) [Compound 60] | ≥ 50% |  | ≥ 50% | 
30 | CC(CNC(=O)c1ccccc1I)c1ncc(Cl)cc1Cl (centres unmarked) [Compound 61] | ≥ 50% |  | ≥ 50% | 
31 | O=C(NCCc1nc(F)c(Cl)cc1F)c1ccccc1C(F)(F)F [Compound 62] | ≥ 50% | ≥ 50% | ≥ 50% | 
32 | O=C(NCCc1nc(F)c(Cl)cc1F)c1ccccc1I [Compound 63] | ≥ 50% |  | ≥ 50% | 
33 | CC(CNC(=O)c1ccccc1I)c1ccc(Cl)cn1 (centres unmarked) [Compound 65] |  |  | ≥ 50% | 
34 | CCNC(=O)C(Cc1ncc(C(F)(F)F)cc1Cl)NC(=O)c1ccccc1 (centres unmarked) [compound 304, N-{1-ethylcarbamoyl-2-[3-chloro-5-(trifluoromethyl)-2-pyridinyl]-ethyl}-benzamide, reference compound] |  |  |  | effectiveness on Botrytis cinerea [2]: zero effectiveness
35 | CCNC(=O)C(Cc1ncc(C(F)(F)F)cc1Cl)NC(=O)c1ccc(Cl)cc1 (centres unmarked) [compound 306, N-{1-ethylcarbamoyl-2-[3-chloro-5-(trifluoromethyl)-2-pyridinyl]ethyl}-4-chlorobenzamide, reference compound] |  |  |  | effectiveness on Botrytis cinerea [2]: zero effectiveness
36 | CCNC(=O)C(Cc1ncc(C(F)(F)F)cc1Cl)NC(=O)c1cccc([N+](=O)[O-])c1 (centres unmarked) [compound 307, N-{1-ethylcarbamoyl-2-[3-chloro-5-(trifluoromethyl)-2-pyridinyl]ethyl}-3-nitrobenzamide, reference compound] |  |  |  | effectiveness on Alternaria brassicae [1]: poor effectiveness; effectiveness on Botrytis cinerea [2]: zero effectiveness
37 | CCNC(=O)C(Cc1ncc(C(F)(F)F)cc1Cl)NC(=O)c1ccccc1Br (centres unmarked) [compound 310, N-{1-ethylcarbamoyl-2-[3-chloro-5-(trifluoromethyl)-2-pyridinyl]ethyl}-2-bromobenzamide, reference compound] |  |  |  | effectiveness on Botrytis cinerea [2]: zero effectiveness
38 | CNC(=O)C(Cc1ncc(C(F)(F)F)cc1Cl)NC(=O)c1ccccc1 (centres unmarked) [compound 314, N-{1-methylcarbamoyl-2-[3-chloro-5-(trifluoromethyl)-2-pyridinyl]ethyl}-benzamide, reference compound] |  |  |  | effectiveness on Botrytis cinerea [2]: zero effectiveness
39 | CNC(=O)C(Cc1ncc(C(F)(F)F)cc1Cl)NC(=O)c1ccc(OC)cc1 (centres unmarked) [compound 315, N-{1-methylcarbamoyl-2-[3-chloro-5-(trifluoromethyl)-2-pyridinyl]ethyl}-4-methoxybenzamide, reference compound] |  |  |  | effectiveness on Botrytis cinerea [2]: zero effectiveness
40 | CNC(=O)C(Cc1ncc(C(F)(F)F)cc1Cl)NC(=O)c1ccc(-c2ccccc2)cc1 (centres unmarked) [compound 316, N-{1-methylcarbamoyl-2-[3-chloro-5-(trifluoromethyl)-2-pyridinyl]-ethyl}-4-phenylbenzamide, reference compound] |  |  |  | effectiveness on Alternaria brassicae [1]: poor effectiveness; effectiveness on Botrytis cinerea [2]: zero effectiveness
